Test results: publication PMC2359919, “Molecular targeting of retinoic acid metabolism in neuroblastoma: the role of the CYP26 inhibitor R116010 in vitro and in vivo” (British Journal of Cancer, 2007)

Key:
CYP26A1 [1] = test: CYP26A1 expression in SH-SY5Y xenograft tumours; assay type: in vivo, CD-1 nude mice
Procedure: All in vivo experiments were approved by the relevant institutional animal welfare committees, and performed according to national law. Female athymic nude mice (CD-1 nu/nu, Charles River) used for antitumour studies were maintained and handled in isolators, under specific pathogen-free conditions, at 24°C with a 12 h light, 12 h dark cycle. Tumours were generated by implantation of SH-SY5Y cells subcutaneously (s.c.) into one flank of CD-1 nude mice (1 × 10^7 cells per animal).
Treatments began when the tumours were between 7 and 10 mm in length and breadth. Retinoids and R116010 were initially dissolved in DMSO before 10- or 20-fold dilutions in PBS, respectively. For pharmacokinetic studies, the animals were dosed with ATRA or 13cisRA (each 100 mg kg^−1) orally for 0.5, 2 and 6 h. […]
(§1) RNA was reverse-transcribed using Promega's Reverse Transcription System according to the manufacturer's instructions, using random hexamer primers. […] As internal standard, β-actin was measured simultaneously using the endogenous control assay provided by Applied Biosystems. […] Standard curves were generated from serial dilutions of cDNA prepared from cells treated with ATRA (1 μM) and the data were analysed using the GeneAmp Sequence Detection System software. CYP26C1 expression was analysed as described previously ([Taimi et al, 2004]).

[2] = set-up: method as in Villablanca et al, 1995; conditions: high-dose pulse therapy after autologous bone marrow transplantation or non-myeloablative therapy; ref Villablanca et al, 1995; cited from earlier work
CYP26A1 [3] = test: CYP26A1 mRNA expression in neuroblastoma cells, real-time PCR; assay type: cell-based, human; conditions: 0.1 μM retinoid, 24 h; panel of neuroblastoma cell lines; relative to SH-SY5Y cells treated with 0.01 μM ATRA
Procedure: SH-SY5Y, SH-EP (N- and S-type cells respectively derived from the parental line SK-N-SH), LAN6, IMR-32, NGP and GIMEN neuroblastoma cell lines were cultured routinely in RPMI 1640 medium containing fetal calf serum (10%) and L-glutamine (2 mM). Cells were grown at 37°C in a humidified incubator containing 5% CO2.
13-cis-Retinoic acid and ATRA were dissolved in DMSO and diluted in cell culture medium to obtain final concentrations of 0.1–10 μM. The final concentration of DMSO in all cases was <0.2%. All experiments were performed in dim light and tubes containing retinoids were wrapped in aluminium foil.
CYP26 short hairpin RNAs (shRNAs) were generated using the siSTRIKE U6 Hairpin Cloning System (Promega, Southampton, UK). The CYP26A1, B1 and Ctrl siRNA sequences were designed using Promega software. […]
as §1

C[C@@H]([C@H](c1ccc(Nc2nc3ccccc3s2)cc1)n1ccnc1)N(C)C [R116010]
Increase in CYP26A1 expression in tumours (CYP26A1 [1]; 13cisRA with two doses of R116010 at 2.5 mg kg^−1 vs 13cisRA alone, individual animals, data not shown): 4- to 20 fold | Effect on CYP26A1 expression in tumours (CYP26A1 [1]; R116010 prior ATRA): not significantly different

CC1=C(/C=C/C(C)=C/C=C/C(C)=C\C(=O)O)C(C)(C)CCC1 [13cisRA, 13-cis-retinoic acid]
Peak drug levels in patients [2]: > 5 µM

CC1=C(/C=C/C(C)=C/C=C/C(C)=C/C(=O)O)C(C)(C)CCC1 [ATRA, all-trans-retinoic acid]
CYP26A1 induction (CYP26A1 [3]): induced to various extents in SH-SY5Y, LAN6 and NGP cells
